We go through two compounds from patent US20050095270A1, “Drug delivery to the inner ear and methods of using same” (priority 2003, published 2005).

The test system of data set [1] is hair cells of organ of Corti. The experiment in a line: Mitochondrial function and hair cell survival in organ of Corti treated with cisplatin. Type of data set: cell-based. As to conditions: cisplatin treatment alone (FIGS. 3B, 3E). From the text: FIGS. 3A-3F are fluorescent micrographs showing mitochondrial function in hair cells. Cells with healthy and functioning mitochondria stain red and are depicted in 3D, 3E and 3F. The presence of hair cells are shown in green and depicted in 3A, 3B and 3C. FIGS. 3A and 3D represent untreated controls. FIGS. 3B and 3E show an organ of Corti treated with the chemotherapeutic agent cisplatin. […] FIGS. 3C and 3F show an organ of Corti pretreated with an adenovector with bcl2 expression followed by cisplatin treatment.

A further data set relates to inner ear. The data set can be described thus: Hearing by auditory brainstem response after round window injection of vector. As to conditions: for protection of hearing / prevention of inner ear trauma by caspase inhibitor: larger volumes of fluid (greater than about 10% of total inner ear volume), hydraulic/mechanical injury. It counts as in vivo, mouse.
In the next data set the target is cathepsin B (Homo sapiens, UniProt P07858). As to conditions: in vitro and in tissue culture cells at concentrations used to demonstrate the involvement of caspases; cited from earlier work.

Where a SMILES comes first, the peptide text is derived from it. The star is where a group is joined. Cbz = O=C(OCc1ccccc1)*; CH2F = FC*

In the case of `N.N.[Cl][Pt][Cl]` [cisplatin], in data set [1], the “hair cells and mitochondrial function in organ of Corti” value is “loss of cells and loss of mitochondrial function”.

As to `CC(C)[C@H](NC(=O)OCc1ccccc1)C(=O)N[C@@H](C)C(=O)N[C@@H](CC(=O)O)C(=O)CF` [zVAD-FMK, N-benzyloxycarbonyl-Val-Ala-Asp-fluoromethylketone] (Cbz-Val-Ala-Asp-CH2F), the “protection of hearing / prevention of inner ear trauma by caspase inhibitor” value is given as “can prevent inner ear trauma” with inner ear and “protected hearing” in the data set on inner ear (listed as pancaspase inhibitor). The “hearing loss with pancaspase inhibitor added to the vector composition” value in the data set on inner ear (round window, injection volumes up to 3 μL, zVAD-FMK 1 mM, 2 μL with 1 μL vector) is recorded as “only minimal loss of hearing”. On cathepsin B, the “cathepsin B activity inhibition” value is reported as “inhibit efficiently cathepsin B activity”.
